Values of other authors in patent publication EP0743854B1, “ANTI-TUMOUR MEDICAL P[…] THE BASIS OF C[…] THE METHOD OF ITS PRODUCTION” (PLIVA, pharmaceutical industry incorporated, priority 1994, dated 1995).

Conditions: lyophylized injection dissolved in water and other aqueous solutions (sodium chloride, glucose, dextrose)

## N.N.O=C([O-])C1(C(=O)[O-])CCC1.[Pt+2] [carboplatin, cis-diammine-1,1-cyclobutanedicarboxylate platinum (II)]
  stability of solution: stable and therefore therapeutically useful for only few hours, at most few days under lower temperature
